For one assay, the system named is MV4-11. In words: Antiproliferative activity against human MV4-11 cells assessed as inhibition of cell growth incubated for 72 hrs by CellTiterGlo luminescent assay. It is filed as functional, cell-based. Conditions: MV4-11, 72 h. In general terms: ATP-based viability assays read luminescence as a measure of living cells.
In assay [1] the test system is BaF3. In words: Antiproliferative activity against mouse BaF3 cells harboring FLT3-ITD-F691L mutant assessed as reduction in cell viability incubated for 72 hrs by CellTiterGlo luminescent assay. The note with it: BaF3, 72 h. It is filed as functional, cell-based.
The subject of assay [2] is BaF3. The assay is described as follows: Antiproliferative activity against mouse BaF3 cells harboring FLT3-ITD-F691L mutant assessed as residual cell viability at 0.1 uM incubated for 72 hrs by CellTiterGlo luminescent assay. Format: functional.
The target in assay [3] is Receptor-type tyrosine-protein kinase FLT3 (Homo sapiens, UniProt P36888, ITD). The assay is described as follows: Inhibition of human FLT3-ITD mutant preincubated with enzyme for 20 mins followed by [gamma-33P]ATP addition and measured after 120 mins by filter binding method.
For assay [4], the system named is BaF3. In words: Antiproliferative activity against mouse BaF3 cells harboring FLT3-ITD-F691L mutant assessed as residual cell viability at 10 nM incubated for 72 hrs by CellTiterGlo luminescent assay. Format: functional.

As a reminder, the IC50 is the concentration needed to halve the response being measured.

Sequence of Receptor-type tyrosine-protein kinase FLT3 (P36888 whole entry, looked up, stated change not applied): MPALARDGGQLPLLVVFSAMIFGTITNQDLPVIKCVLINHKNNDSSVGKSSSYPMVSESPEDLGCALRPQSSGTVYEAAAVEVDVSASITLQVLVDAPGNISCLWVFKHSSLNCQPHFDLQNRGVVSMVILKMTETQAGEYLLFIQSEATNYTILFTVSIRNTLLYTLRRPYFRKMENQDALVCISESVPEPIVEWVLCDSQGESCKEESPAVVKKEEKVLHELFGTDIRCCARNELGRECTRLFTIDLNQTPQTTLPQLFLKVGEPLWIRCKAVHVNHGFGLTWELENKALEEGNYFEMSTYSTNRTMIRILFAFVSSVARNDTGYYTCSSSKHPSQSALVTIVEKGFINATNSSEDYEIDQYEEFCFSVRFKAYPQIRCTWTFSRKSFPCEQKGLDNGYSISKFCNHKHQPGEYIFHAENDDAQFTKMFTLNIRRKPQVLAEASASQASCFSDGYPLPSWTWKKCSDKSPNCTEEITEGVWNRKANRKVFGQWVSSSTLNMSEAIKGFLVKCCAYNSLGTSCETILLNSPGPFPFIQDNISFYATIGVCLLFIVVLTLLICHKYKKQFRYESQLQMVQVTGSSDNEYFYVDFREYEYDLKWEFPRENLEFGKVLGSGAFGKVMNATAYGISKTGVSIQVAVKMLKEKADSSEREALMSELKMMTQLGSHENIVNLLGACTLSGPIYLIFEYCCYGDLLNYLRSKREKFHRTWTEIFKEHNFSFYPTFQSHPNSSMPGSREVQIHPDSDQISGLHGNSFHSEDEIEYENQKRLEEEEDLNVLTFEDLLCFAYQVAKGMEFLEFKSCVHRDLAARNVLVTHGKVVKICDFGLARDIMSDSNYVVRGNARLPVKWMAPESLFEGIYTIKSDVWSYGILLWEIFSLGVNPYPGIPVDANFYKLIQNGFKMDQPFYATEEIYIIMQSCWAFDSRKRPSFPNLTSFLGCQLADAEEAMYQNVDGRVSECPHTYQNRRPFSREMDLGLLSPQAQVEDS

On to `O=C(Nc1cc(-c2ccc3ncn(Cc4ccccc4Cl)c3c2)[nH]n1)c1ccc(N2CCOCC2)cc1`, for which the IC50 in the assay on MV4-11 worked out at 9.02 nM; in the assay with BaF3 [1], 65.2 nM. In the assay on BaF3 [2], the Activity amounted to 16.59%.
For the compound `CN1CCC(Nc2ccc(C(=O)Nc3cc(-c4ccc5ncn(Cc6ccccc6)c5c4)[nH]n3)cc2F)CC1`, the IC50 was 32.6 nM in the assay with MV4-11 and 3.77 nM in assay [3]. For the same compound, in the assay on BaF3 [2], the Activity was 100.57%.
Regarding `CN1CCC(Nc2ccc(C(=O)Nc3cc(-c4ccc5ncn(Cc6ccccc6)c5c4)[nH]n3)cc2)CC1`, the IC50 in assay [3] came out at 1.84 nM. In addition, in the assay with BaF3 [2], the Activity amounted to 96.22%.
Regarding `CN1CCC(Nc2ccc(C(=O)Nc3cc(-c4ccc5ncn(Cc6cccc(F)c6)c5c4)[nH]n3)cc2)CC1`, the IC50 with MV4-11 was 18.5 nM; in assay [3], 3.22 nM. Besides, the Activity with BaF3 [2] was 97.08%.
Take `CN1CCC(Nc2ccc(C(=O)Nc3cc(-c4ccc5ncn(Cc6cccc(Cl)c6)c5c4)[nH]n3)cc2)CC1`: the half-inhibitory concentration (IC50) in the assay on MV4-11 was 66 nM; in assay [3], 0.94 nM. For the same compound, the Activity in the assay on BaF3 [2] is 100.75%.
With `CN1CCC(Nc2ccc(C(=O)Nc3cc(-c4ccc5ncn(Cc6ccccc6F)c5c4)[nH]n3)cc2)CC1`, the results for the IC50 (in the assay on MV4-11; in assay [3]) were 90.6 nM and 8.34 nM, respectively. Further, the Activity in the assay on BaF3 [2] is 99.79%.
`CN1CCC(Nc2ccc(C(=O)Nc3cc(-c4ccc5ncn(Cc6ccsc6)c5c4)[nH]n3)cc2)CC1`: the half-maximal inhibitory concentration (IC50) with MV4-11 was found to be 55.6 nM; in assay [3], 1.42 nM. For the same compound, in the assay on BaF3 [2], the Activity is given as 108.58%.
Turning to `CN1CCC(Nc2ccc(C(=O)Nc3cc(-c4ccc5ncn(Cc6ccc(Cl)cc6)c5c4)[nH]n3)cc2)CC1`, the IC50 in the assay with MV4-11 stood at 219 nM; in assay [3] it was 3.59 nM. The Activity in the assay on BaF3 [2] is 101.73%.
For `CN1CCC(Nc2ccc(C(=O)Nc3cc(-c4ccc5ncn(C6CCCC6)c5c4)[nH]n3)cc2)CC1`, the figures for the IC50 (with MV4-11; in assay [3]) were 68.2 nM and 1.14 nM, respectively. In addition, the Activity in the assay on BaF3 [2] is on record as 97.57%.
`CN1CCC(Nc2ccc(C(=O)Nc3cc(-c4ccc5ncn(Cc6ccccc6Cl)c5c4)[nH]n3)cc2)CC1`: the values for the IC50 (with MV4-11; in assay [3]) were 25.4 nM and 0.85 nM, respectively. Besides, in the assay on BaF3 [2], the Activity was 40.17%.
Take `CN1CCN(Cc2ccc(NC(=O)c3n[nH]cc3Nc3ncnc4[nH]ccc34)cc2)CC1`: the half-inhibitory concentration (IC50) in the assay on MV4-11 worked out at 6.38 nM; in assay [3] it was 1.71 nM; in the assay on BaF3 [1], 7.65 nM.
As to `CN(C)CCN(C)c1ccc(C(=O)Nc2cc(-c3ccc4ncn(Cc5c(Cl)cccc5Cl)c4c3)[nH]n2)cc1`, the IC50 with MV4-11 came out at 2.78 nM. Further, the Activity in the assay on BaF3 [4] came to 102.83%.
The like results for `O=C(Nc1cc(-c2ccc3ncn(Cc4c(Cl)cccc4Cl)c3c2)[nH]n1)c1ccc(N2CC3CC2CO3)cc1` (configuration not stated) were, in that order, 2.88 nM and 88.75%.
Regarding `CN1CCCN(c2ccc(C(=O)Nc3cc(-c4ccc5ncn(Cc6c(Cl)cccc6Cl)c5c4)[nH]n3)cc2)CC1`, the IC50 in the assay with MV4-11 was 1.38 nM. For the same compound, the Activity with BaF3 [4] was found to be 107.43%.
With `COc1ccccc1Cn1cnc2ccc(-c3cc(NC(=O)c4ccc(NC5CCN(C)CC5)cc4)n[nH]3)cc21`, the IC50 with MV4-11 was 33.6 nM; in assay [3] it was 0.7 nM. In addition, in the assay on BaF3 [2], the Activity was 85.88%.
Turning to `CN(C)CCNc1ccc(C(=O)Nc2cc(-c3ccc4ncn(Cc5c(Cl)cccc5Cl)c4c3)[nH]n2)cc1`, the IC50 in the assay with MV4-11 is 3.14 nM. Besides, the Activity in the assay on BaF3 [4] was found to be 101.71%.
For `Cc1ccccc1Cn1cnc2ccc(-c3cc(NC(=O)c4ccc(NC5CCN(C)CC5)cc4)n[nH]3)cc21`, the IC50 with MV4-11 is 29.7 nM; in assay [3], 0.94 nM. In addition, the Activity with BaF3 [2] turned out to be 86.49%.
The corresponding values for `CN1CCC(Nc2ccc(C(=O)Nc3cc(-c4ccc5ncn(Cc6ccc(F)cc6)c5c4)[nH]n3)cc2)CC1` are 23.6 nM, 4.58 nM and 100.93%.
For the compound `Cc1cc(C(=O)Nc2cc(-c3ccc4ncn(Cc5ccccc5)c4c3)[nH]n2)ccc1NC1CCN(C)CC1`, the values for the IC50 (with MV4-11; in assay [3]) were 48.2 nM and 3.72 nM, respectively. Further, in the assay on BaF3 [2], the Activity came out at 99.36%.

(Values after ChEMBL document CHEMBL5226341, “Discovery of a Potent FLT3 Inhibitor (LT-850-166) with the Capacity of Overcoming a Variety of FLT3 Mutations” (J Med Chem, 2021).)
